Measurements taken from patent US20150197497A1, “SELECTIVE INHIBITORS OF HISTONE DEACETYLASE ISOFORM 6 AND METHODS THEREOF” (DANA-FARBER CANCER INSTITUTE, INC., priority 2011, published 2015).

Key:
HDAC2 = molecular target: T1, HDAC2 (Homo sapiens, UniProt Q92769); test: In vitro HDAC enzyme inhibition assay, HDAC2; type: biochemical; conditions: for HDAC2/HDAC6 in vitro selectivity: ratio of IC50 for HDAC2 relative to that of HDAC6; for IC50: recombinant full-length HDAC2, substrate MAZ1600 22 μM
T1 construct: Recombinant, full-length HDAC protein (BPS Biosciences) was incubated with fluorophore conjugated substrate; purchased BPS Biosciences
Description: (§1) In vitro Histone Deacetylase enzyme assays were performed using Class I (isoforms: HDAC1, HDAC2, HDAC3 and HDAC8), class IIa (isoforms: HDAC4, HDAC5, HDAC7 and HDAC9) and class IIb (isoform HDAC6).
(§2) HDAC activities were determined in vitro with an optimized homogenous assay performed in a 384-well plate. Recombinant, full-length HDAC protein (BPS Biosciences) was incubated with fluorophore conjugated substrate, MAZ1600 and MAZ1675, at Km=[S]. […] Reactions were performed in assay buffer (50 mM HEPES, 100 mM KCl, 0.001% Tween-20, 0.05% BSA, 200 μM tris(2-carboxyethyl)phosphine (TCEP), pH 7.4) and followed for fluorogenic release of 7-amino-4-methylcoumarin from substrate upon deacetylase and trypsin enzymatic activity. Fluorescence measurements were obtained every five minutes using a multilabel plate reader and plate-stacker (Envision; Perkin-Elmer). Each plate was analyzed by plate repeat, and the first derivative within the linear range was imported into analytical software (Spotfire DecisionSite and GraphPad Prism). Replicate experimental data from incubations with inhibitor were normalized to controls.

HDAC3 = molecular target: T2, HDAC3 (Homo sapiens, UniProt O15379); test: In vitro HDAC enzyme inhibition assay, HDAC3; type: biochemical; conditions: for HDAC3/HDAC6 in vitro selectivity: ratio of IC50 for HDAC3 relative to that of HDAC6; for IC50: recombinant full-length HDAC3, substrate MAZ1600 9 μM
T2 construct: Recombinant, full-length HDAC protein (BPS Biosciences) was incubated with fluorophore conjugated substrate; purchased BPS Biosciences
Description: as §1, §2

HDAC7 = molecular target: T3, HDAC7 (Homo sapiens, UniProt Q8WUI4); test: In vitro HDAC enzyme inhibition assay, HDAC7; type: biochemical; conditions: for HDAC7/HDAC6 in vitro selectivity: ratio of IC50 for HDAC7 relative to that of HDAC6; for IC50: recombinant full-length HDAC7, substrate MAZ1675 22 μM
T3 construct: Recombinant, full-length HDAC protein (BPS Biosciences) was incubated with fluorophore conjugated substrate; purchased BPS Biosciences
T3 sequence (Q8WUI4 1-952): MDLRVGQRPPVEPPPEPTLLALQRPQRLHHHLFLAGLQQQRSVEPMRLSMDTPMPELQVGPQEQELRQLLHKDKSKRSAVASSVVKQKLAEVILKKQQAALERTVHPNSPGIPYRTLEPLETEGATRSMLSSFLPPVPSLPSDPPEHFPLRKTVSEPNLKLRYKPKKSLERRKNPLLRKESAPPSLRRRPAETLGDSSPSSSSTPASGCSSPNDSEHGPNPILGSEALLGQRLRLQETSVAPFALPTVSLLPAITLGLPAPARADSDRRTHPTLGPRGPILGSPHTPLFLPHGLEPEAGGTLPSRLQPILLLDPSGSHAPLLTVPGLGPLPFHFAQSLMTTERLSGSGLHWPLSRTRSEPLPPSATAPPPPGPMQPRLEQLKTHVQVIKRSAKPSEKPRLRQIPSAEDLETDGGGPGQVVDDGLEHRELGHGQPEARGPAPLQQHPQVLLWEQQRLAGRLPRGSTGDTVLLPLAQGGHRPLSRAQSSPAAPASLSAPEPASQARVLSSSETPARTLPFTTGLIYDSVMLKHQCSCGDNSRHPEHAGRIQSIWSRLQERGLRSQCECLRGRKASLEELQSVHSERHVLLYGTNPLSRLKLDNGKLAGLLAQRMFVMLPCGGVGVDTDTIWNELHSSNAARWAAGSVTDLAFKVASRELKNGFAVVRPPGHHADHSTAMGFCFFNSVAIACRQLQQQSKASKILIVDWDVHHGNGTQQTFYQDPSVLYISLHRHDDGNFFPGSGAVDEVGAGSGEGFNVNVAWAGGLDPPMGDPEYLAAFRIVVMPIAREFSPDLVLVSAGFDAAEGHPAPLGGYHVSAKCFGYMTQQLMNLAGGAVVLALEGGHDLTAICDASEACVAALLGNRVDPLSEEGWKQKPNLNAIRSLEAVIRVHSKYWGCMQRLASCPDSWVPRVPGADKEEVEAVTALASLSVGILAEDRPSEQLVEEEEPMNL
Description: as §1, §2

HDAC8 = molecular target: T4, HDAC8 (Homo sapiens, UniProt Q9BY41); test: In vitro HDAC enzyme inhibition assay, HDAC8; type: biochemical; conditions: for HDAC8/HDAC6 in vitro selectivity: ratio of IC50 for HDAC8 relative to that of HDAC6; for IC50: recombinant full-length HDAC8, substrate MAZ1675 282 μM
T4 construct: Recombinant, full-length HDAC protein (BPS Biosciences) was incubated with fluorophore conjugated substrate; purchased BPS Biosciences
T4 sequence (Q9BY41 1-377): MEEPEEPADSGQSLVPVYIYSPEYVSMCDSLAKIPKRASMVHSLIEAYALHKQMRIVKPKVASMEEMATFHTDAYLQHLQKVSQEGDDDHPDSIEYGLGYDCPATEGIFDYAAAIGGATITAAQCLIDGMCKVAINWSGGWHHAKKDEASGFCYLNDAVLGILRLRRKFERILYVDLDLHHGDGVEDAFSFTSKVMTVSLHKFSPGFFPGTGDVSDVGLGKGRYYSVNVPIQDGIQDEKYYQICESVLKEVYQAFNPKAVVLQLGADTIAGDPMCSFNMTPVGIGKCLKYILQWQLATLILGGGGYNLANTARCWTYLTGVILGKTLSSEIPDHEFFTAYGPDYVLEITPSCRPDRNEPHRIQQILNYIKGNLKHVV
Description: as §1, §2

HDAC9 = molecular target: T5, HDAC9 (Homo sapiens, UniProt Q9UKV0); test: In vitro HDAC enzyme inhibition assay, HDAC9; type: biochemical; conditions: for HDAC9/HDAC6 in vitro selectivity: ratio of IC50 for HDAC9 relative to that of HDAC6; for IC50: recombinant full-length HDAC9, substrate MAZ1675 26 μM; for selectivity toward HDAC6 compared to HDAC9 (in words): tested in vitro
T5 construct: Recombinant, full-length HDAC protein (BPS Biosciences) was incubated with fluorophore conjugated substrate; purchased BPS Biosciences
Description: as §1, §2

acetylated tubulin = test: High-content image analysis of induction of acetylated tubulin in A549 cells; conditions: for EC50: Homo sapiens, A549, 8 h, read-out: EC50 for half-maximal induction of acetylated tubulin (AcTubulin); for AcHistone/AcTubulin in cell selectivity toward HDAC6: ratio of EC50 acetylated histone to EC50 acetylated tubulin, A549 cells

T1 sequence (Q92769 whole entry): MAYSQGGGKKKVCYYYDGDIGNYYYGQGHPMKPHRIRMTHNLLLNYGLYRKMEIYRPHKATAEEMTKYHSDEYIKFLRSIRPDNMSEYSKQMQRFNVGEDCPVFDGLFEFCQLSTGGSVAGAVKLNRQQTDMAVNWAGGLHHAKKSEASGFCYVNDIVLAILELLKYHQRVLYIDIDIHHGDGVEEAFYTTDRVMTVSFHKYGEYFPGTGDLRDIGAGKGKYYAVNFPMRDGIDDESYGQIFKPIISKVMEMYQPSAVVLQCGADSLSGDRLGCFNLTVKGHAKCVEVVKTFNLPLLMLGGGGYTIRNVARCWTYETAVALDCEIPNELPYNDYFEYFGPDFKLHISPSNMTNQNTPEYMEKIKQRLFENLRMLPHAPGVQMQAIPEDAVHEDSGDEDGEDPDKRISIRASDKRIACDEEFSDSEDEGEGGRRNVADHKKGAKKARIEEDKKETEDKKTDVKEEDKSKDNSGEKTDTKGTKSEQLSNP
T2 sequence (O15379 whole entry): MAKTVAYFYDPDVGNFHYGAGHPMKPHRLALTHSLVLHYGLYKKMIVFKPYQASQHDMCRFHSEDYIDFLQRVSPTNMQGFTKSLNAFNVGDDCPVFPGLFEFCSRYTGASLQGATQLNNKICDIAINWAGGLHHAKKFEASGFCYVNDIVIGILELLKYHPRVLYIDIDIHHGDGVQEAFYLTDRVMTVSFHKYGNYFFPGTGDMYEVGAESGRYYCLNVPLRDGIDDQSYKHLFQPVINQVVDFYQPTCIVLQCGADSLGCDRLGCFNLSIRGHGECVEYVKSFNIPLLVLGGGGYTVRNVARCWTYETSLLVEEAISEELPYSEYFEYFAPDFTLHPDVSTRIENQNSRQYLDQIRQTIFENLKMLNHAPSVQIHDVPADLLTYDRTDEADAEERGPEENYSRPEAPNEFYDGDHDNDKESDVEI
T2 sequence (Q9Y618 395-489 partner limits assumed): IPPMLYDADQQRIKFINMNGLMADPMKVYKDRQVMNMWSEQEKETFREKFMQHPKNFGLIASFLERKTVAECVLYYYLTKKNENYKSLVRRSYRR
T5 sequence (Q9UKV0 whole entry): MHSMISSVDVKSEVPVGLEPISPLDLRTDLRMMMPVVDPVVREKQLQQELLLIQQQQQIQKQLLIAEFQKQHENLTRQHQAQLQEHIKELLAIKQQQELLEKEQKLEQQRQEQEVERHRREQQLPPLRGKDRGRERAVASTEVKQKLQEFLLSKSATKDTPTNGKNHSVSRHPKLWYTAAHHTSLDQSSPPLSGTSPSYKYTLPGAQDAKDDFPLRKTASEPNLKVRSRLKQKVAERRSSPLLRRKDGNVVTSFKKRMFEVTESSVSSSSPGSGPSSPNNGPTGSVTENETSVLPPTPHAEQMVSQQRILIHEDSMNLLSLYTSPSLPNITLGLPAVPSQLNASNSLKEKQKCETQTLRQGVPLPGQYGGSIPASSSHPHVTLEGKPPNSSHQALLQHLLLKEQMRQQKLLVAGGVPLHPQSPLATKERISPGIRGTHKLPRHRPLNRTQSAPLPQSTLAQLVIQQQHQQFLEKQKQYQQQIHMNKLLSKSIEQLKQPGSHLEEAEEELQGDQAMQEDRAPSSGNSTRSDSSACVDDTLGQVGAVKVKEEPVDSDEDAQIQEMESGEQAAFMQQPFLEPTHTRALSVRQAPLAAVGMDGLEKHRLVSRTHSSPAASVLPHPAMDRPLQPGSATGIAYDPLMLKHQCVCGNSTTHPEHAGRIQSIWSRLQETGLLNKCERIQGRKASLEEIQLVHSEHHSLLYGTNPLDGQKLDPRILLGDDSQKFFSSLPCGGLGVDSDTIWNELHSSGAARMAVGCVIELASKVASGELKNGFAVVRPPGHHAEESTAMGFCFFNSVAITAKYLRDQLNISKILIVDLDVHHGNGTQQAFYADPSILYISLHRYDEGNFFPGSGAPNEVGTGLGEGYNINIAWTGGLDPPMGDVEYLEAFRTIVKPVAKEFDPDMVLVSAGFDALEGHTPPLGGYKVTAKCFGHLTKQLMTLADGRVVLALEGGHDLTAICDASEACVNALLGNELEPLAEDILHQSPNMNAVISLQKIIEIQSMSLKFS

| SMILES | HDAC2/HDAC6 in vitro selectivity (HDAC2) | IC50 (HDAC2) [nM] | HDAC3/HDAC6 in vitro selectivity (HDAC3) | IC50 (HDAC3) [nM] | HDAC7/HDAC6 in vitro selectivity (HDAC7) | IC50 (HDAC7) [nM] | HDAC8/HDAC6 in vitro selectivity (HDAC8) | IC50 (HDAC8) [nM] | HDAC9/HDAC6 in vitro selectivity (HDAC9) | IC50 (HDAC9) [nM] | EC50 (acetylated tubulin) [nM] | AcHistone/AcTubulin in cell selectivity toward HDAC6 (acetylated tubulin) | selectivity toward HDAC6 compared to HDAC9 (in words) (HDAC9) | selectivity toward HDAC6 compared to HDAC7 (in words) (HDAC7; tested in vitro) | selectivity toward HDAC6 compared to HDAC8 (in words) (HDAC8; tested in vitro) |
| --- | --- | --- | --- | --- | --- | --- | --- | --- | --- | --- | --- | --- | --- | --- | --- |
| Cc1ccc2c(c1)nc(C(F)(F)F)n2Cc1ccc(C(=O)NO)cc1 [A2, N-hydroxy-4-((5-methyl-2-(trifluoromethyl)-1H-benzo[d]imidazol-1-yl)methyl)benzamide] | 553 | 169 | 3718 | 1140 | 348 | 106 | 4364 | 1330 | 1942 | 594 | 100 | 2.411 |  |  |  |
| O=C(NO)c1ccc(Cn2nnc3ccccc32)cc1 [C1, 4-((1H-benzo[d][1,2,3]triazol-1-yl)methyl)-N-hydroxybenzamide] | 4884 | 78.1 | 10277 | 164 | 9286 | 148 | 19098 | 305 | 67800 | 1080 | 2700 | 2.641 | exceptionally high selectivity (Inhibitors with in vitro selectivity values for HDAC6 of at least 30,000 are considered to have exceptionally high selectivity toward HDAC6) |  |  |
| Cc1ccc2c(c1)[nH]c(=O)n2Cc1ccc(C(=O)NO)cc1 [B2, N-hydroxy-4-((5-methyl-2-oxo-2,3-dihydro-1H-benzo[d]imidazol-1-yl)methyl)benzamide] | 4997 | 14.3 | 6310 | 18.1 | 55678 | 159 | 120780 | 346 | 319552 | 915 | 95.3 | 2.402 | exceptionally high selectivity (Inhibitors with in vitro selectivity values for HDAC6 of at least 30,000 are considered to have exceptionally high selectivity toward HDAC6) | exceptionally high selectivity (Inhibitors with in vitro selectivity values for HDAC6 of at least 30,000 are considered to have exceptionally high selectivity toward HDAC6) | exceptionally high selectivity (Inhibitors with in vitro selectivity values for HDAC6 of at least 30,000 are considered to have exceptionally high selectivity toward HDAC6) |
| O=C(NO)c1ccc(Cn2nnc3cc(Br)ccc32)cc1 [C5, 4-((5-bromo-1H-benzo[d][1,2,3]triazol-1-yl)methyl)-N-hydroxybenzamide] | 3277 | 84.5 | 4479 | 115 | 11817 | 305 | 16483 | 425 | 42107 | 1090 | 150 | 15.37 | exceptionally high selectivity (Inhibitors with in vitro selectivity values for HDAC6 of at least 30,000 are considered to have exceptionally high selectivity toward HDAC6) |  |  |
